Measured values published in ChEMBL document CHEMBL1765058, “Structural basis for the interaction between carbonic anhydrase and 1,2,3,4-tetrahydroisoquinolin-2-ylsulfonamides” (J Med Chem, 2011).

Molecular target: Carbonic anhydrase 7 (Homo sapiens, UniProt P43166)
Assay: Inhibition of human recombinant CAH7

Chain of Carbonic anhydrase 7 (P43166 whole entry): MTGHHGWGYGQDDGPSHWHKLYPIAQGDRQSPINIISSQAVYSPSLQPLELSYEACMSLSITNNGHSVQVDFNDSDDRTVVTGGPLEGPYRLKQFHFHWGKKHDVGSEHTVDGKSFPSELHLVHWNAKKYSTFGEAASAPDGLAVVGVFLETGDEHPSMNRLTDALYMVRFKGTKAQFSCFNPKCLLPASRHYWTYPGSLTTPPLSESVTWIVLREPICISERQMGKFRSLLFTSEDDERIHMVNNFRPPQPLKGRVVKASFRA

Structure (SMILES): COc1cc2c(cc1OC)C(C)N(S(N)(=O)=O)CC2 (stereo unspecified)
- Ki: 6.4 nM
